# Assay results reported in ChEMBL document CHEMBL3885861, “Open TG-GATES”.
# Species on record: Rattus norvegicus
# Assay: Open TG-GATES - Regimen: Single
# Assay type: toxicity, organism-based, Sprague-Dawley
# Parameters: regimen Single, gender Male, age 6 weeks
# Details: in vivo, ip, 0 mg/kg, route intraperitoneal injection, dose 0 ug/Kg, dose level Control; for APTT / Bas / Eos / Fbg / Hb / Ht / Lym / MCH / MCHC / MCV / Mono / Neu / PT / Plat / RBC / Ret / WBC: tissue Blood; for KIDNEY_L / KIDNEY_R / KIDNEY_TOTAL: tissue Kidney; for LIVER: tissue Liver; for A/G / ALP / ALT / AST / BUN / CRE / Ca / Cl / DBIL / GLC / IP / K / LDH / Na / PL / RALB / TBIL / TC / TG / TP / gamma-GTP: tissue Plasma
smiles,measurement,setting,value
CC(=O)N[C@H]1[C@@H](O[C@@H]2O[C@H](CC(O)[C@H]3O[C@@H](n4ccc(=O)[nH]c4=O)[C@H](O)[C@@H]3O)[C@H](O)[C@H](O)[C@H]2NC(=O)/C=C/CC(C)C)O[C@H](CO)[C@@H](N)[C@@H]1O (some centres not stated) [TUNICAMYCIN],TERMINAL_BW,3 h,221.9 g
same,APTT,3 h,21.5 s
same,Bas,3 h,0%
same,Eos,3 h,0.5%
same,Fbg,3 h,293.8 mg/dL
same,Hb,3 h,13 g/dL
same,Ht,3 h,39.6%
same,Lym,3 h,77%
same,MCH,3 h,21.1 pg
same,MCHC,3 h,32.9%
same,MCV,3 h,64.1 fL
same,Mono,3 h,2.8%
same,Neu,3 h,18.8%
same,PT,3 h,15.8 s
same,Plat,3 h,103.5 x10_4/uL
same,RBC,3 h,617.8 x10_4/ul
same,Ret,3 h,8.1%
same,WBC,3 h,129.5 x10_2/uL
same,KIDNEY_L,3 h,1 g
same,KIDNEY_R,3 h,1 g
same,KIDNEY_TOTAL,3 h,2 g
same,LIVER,3 h,10.3 g
same,A/G,3 h,1.2
same,ALP,3 h,1530.2 IU/L
same,ALT,3 h,45 IU/L
same,AST,3 h,75 IU/L
same,BUN,3 h,14 mg/dL
same,CRE,3 h,0.2 mg/dL
same,Ca,3 h,10.6 mg/dL
same,Cl,3 h,106.5 meq/L
same,DBIL,3 h,0 mg/dL
same,GLC,3 h,175.2 mg/dL
same,IP,3 h,8.4 mg/dL
same,K,3 h,4.4 meq/L
same,LDH,3 h,176.5 IU/L
same,Na,3 h,140.2 meq/L
same,PL,3 h,127.5 mg/dL
same,RALB,3 h,2.9 g/dL
same,TBIL,3 h,0.0125 mg/dL
same,TC,3 h,71.8 mg/dL
same,TG,3 h,72.5 mg/dL
same,TP,3 h,5.3 g/dL
same,gamma-GTP,3 h,1 IU/L
same,TERMINAL_BW,6 h,222.7 g
same,APTT,6 h,22.4 s
same,Bas,6 h,0%
same,Eos,6 h,0.4%
same,Fbg,6 h,306.8 mg/dL
same,Hb,6 h,13 g/dL
same,Ht,6 h,40.2%
same,Lym,6 h,75.2%
same,MCH,6 h,20.6 pg
same,MCHC,6 h,32.4%
same,MCV,6 h,63.4 fL
same,Mono,6 h,2%
same,Neu,6 h,22%
same,PT,6 h,15.4 s
same,Plat,6 h,114.6 x10_4/uL
same,RBC,6 h,634.2 x10_4/ul
same,Ret,6 h,7.9%
same,WBC,6 h,100.9 x10_2/uL
same,KIDNEY_L,6 h,1 g
same,KIDNEY_R,6 h,1 g
same,KIDNEY_TOTAL,6 h,2 g
same,LIVER,6 h,10.1 g
same,A/G,6 h,1.2
same,ALP,6 h,1339.6 IU/L
same,ALT,6 h,39.6 IU/L
same,AST,6 h,68.6 IU/L
same,BUN,6 h,11 mg/dL
same,CRE,6 h,0.1 mg/dL
same,Ca,6 h,10.9 mg/dL
same,Cl,6 h,104.8 meq/L
same,DBIL,6 h,0 mg/dL
same,GLC,6 h,186.8 mg/dL
same,IP,6 h,9.2 mg/dL
same,K,6 h,4.2 meq/L
same,LDH,6 h,142.8 IU/L
same,Na,6 h,142.4 meq/L
same,PL,6 h,133 mg/dL
same,RALB,6 h,2.9 g/dL
same,TBIL,6 h,0.018 mg/dL
same,TC,6 h,74.2 mg/dL
same,TG,6 h,63.2 mg/dL
same,TP,6 h,5.4 g/dL
same,gamma-GTP,6 h,1.2 IU/L
same,TERMINAL_BW,9 h,216.2 g
same,APTT,9 h,22.6 s
same,Bas,9 h,0%
same,Eos,9 h,0.6%
same,Fbg,9 h,299.2 mg/dL
same,Hb,9 h,13.1 g/dL
same,Ht,9 h,40.6%
same,Lym,9 h,81.2%
same,MCH,9 h,20.3 pg
same,MCHC,9 h,32.2%
same,MCV,9 h,63 fL
same,Mono,9 h,1.8%
same,Neu,9 h,15.8%
same,PT,9 h,15.7 s
same,Plat,9 h,118.2 x10_4/uL
same,RBC,9 h,643.6 x10_4/ul
same,Ret,9 h,7.7%
same,WBC,9 h,98.9 x10_2/uL
same,KIDNEY_L,9 h,1 g
same,KIDNEY_R,9 h,1 g
same,KIDNEY_TOTAL,9 h,1.9 g
same,LIVER,9 h,8.6 g
same,A/G,9 h,1.2
same,ALP,9 h,1451.4 IU/L
same,ALT,9 h,37.6 IU/L
same,AST,9 h,71 IU/L
same,BUN,9 h,11.2 mg/dL
same,CRE,9 h,0.1 mg/dL
same,Ca,9 h,10.3 mg/dL
same,Cl,9 h,104.8 meq/L
same,DBIL,9 h,0 mg/dL
same,GLC,9 h,195.4 mg/dL
same,IP,9 h,9.6 mg/dL
same,K,9 h,4.2 meq/L
same,LDH,9 h,158.4 IU/L
same,Na,9 h,141.8 meq/L
same,PL,9 h,128 mg/dL
same,RALB,9 h,2.8 g/dL
same,TBIL,9 h,0.024 mg/dL
same,TC,9 h,74.2 mg/dL
same,TG,9 h,54 mg/dL
same,TP,9 h,5.2 g/dL
same,gamma-GTP,9 h,1 IU/L
same,TERMINAL_BW,24 h,234.3 g
same,APTT,24 h,21.6 s
same,Bas,24 h,0%
same,Eos,24 h,1%
same,Fbg,24 h,295.2 mg/dL
same,Hb,24 h,12.7 g/dL
same,Ht,24 h,39.1%
same,Lym,24 h,78.6%
same,MCH,24 h,20.2 pg
same,MCHC,24 h,32.4%
same,MCV,24 h,62.4 fL
same,Mono,24 h,3.6%
same,Neu,24 h,16.2%
same,PT,24 h,16.2 s
same,Plat,24 h,119.3 x10_4/uL
same,RBC,24 h,626.8 x10_4/ul
same,Ret,24 h,7.3%
same,WBC,24 h,88.7 x10_2/uL
same,KIDNEY_L,24 h,1.1 g
same,KIDNEY_R,24 h,1.1 g
same,KIDNEY_TOTAL,24 h,2.1 g
same,LIVER,24 h,10.8 g
same,A/G,24 h,1.2
same,ALP,24 h,1584.8 IU/L
same,ALT,24 h,42.2 IU/L
same,AST,24 h,71.2 IU/L
same,BUN,24 h,16.6 mg/dL
same,CRE,24 h,0.1 mg/dL
same,Ca,24 h,10.5 mg/dL
same,Cl,24 h,105.2 meq/L
same,DBIL,24 h,0 mg/dL
same,GLC,24 h,184.4 mg/dL
same,IP,24 h,6.8 mg/dL
same,K,24 h,4.6 meq/L
same,LDH,24 h,146.4 IU/L
same,Na,24 h,141.2 meq/L
same,PL,24 h,136 mg/dL
same,RALB,24 h,3.1 g/dL
same,TBIL,24 h,0.008 mg/dL
same,TC,24 h,73.6 mg/dL
same,TG,24 h,70.8 mg/dL
same,TP,24 h,5.5 g/dL
same,gamma-GTP,24 h,1.8 IU/L
